Results published in patent US6780995B2, “Activated iododerivatives for the treatment of cancer and aids” (Isotechnika Inc., priority 1997, dated 2004).
Where two headings read alike, the source gives them in different places.

Key:
[1] = system: SK-MEL-5 cells; test: IC50 assay, inhibition of cell proliferation and growth, SK-MEL-5; assay type: cell-based, human; conditions: Homo sapiens
Description: (§1) Cell culture: The human cell lines were propagated under sterile conditions in RPMI 1640 (CellGrow) with 10% fetal bovine serum (Hyclone), 2 mM L-glutamine, and sodium bicarbonate (complete medium) and incubated at 37° C. in HEPA-filtered Sterilcult CO2 tissue culture incubators (Forma) with 5% CO^2 and 95% humidity (Table 1). The murine leukemia cell lines were propagated in Dulbecco's MEM media with 10% equine serum (Hyclone), 2 mM L-glutamine, and sodium bicarbonate (complete medium) and incubated as described. The cells were subcultured twice weekly and used in experiments. The culture was screened for mycoplasma contamination using GeneProbe™ (Fisher) and positive cultures were cured of contaminants over three passages using constant treatment with BM-Cyclin™ antibiotic combination (Boehringer Mannheim). Only cultures confirmed as mycoplasma free were used in testing compounds for anticellular activity.
(§2) The test compounds were stored at 4° C. under light protected conditions. The test compounds were weighed and dissolved in DMSO. The dissolved compounds were then serially diluted in warm medium (RPMI 1640 or Dulbecco's MEM) under constant mixing to minimize precipitation. The positive control drug doxorubicin was diluted in water followed by dilution in media to achieve a final concentration of 200 nM.
(§3) For all experiments, the cells were harvested and centrifuged to remove the media, and suspended in fresh completed medium. Samples were taken to determine cell density. The cell count was determined with a Coulter Model Z1 cell counter and viability was measured with propidium iodide staining followed by analysis on a Coulter EPPICS Elite Flow cytometer. The cell samples sere adjusted with complete medium to a density of 5×10^4/mL for adherent cell lines and 1×10^5/mL for suspension lines. Tissue culture cluster plates (96 well, cat. No. 3595 Costar for adherent human lines and cat No. 25850 Corning for murine leukemias) were seeded with 100 μL cells and incubated as described. Replicate groups of plates were set up for each line to accommodate the exposure options for single agents and combinations. For each dilution 8 wells (100 μL samples of cells) were treated with 100 μL of dosing solution one day after plating. Each cluster plate contained a cell control (8 wells, mock-treated with complete medium), a medium control (3 wells with medium used to subtract out signal generated by media conditions), and an air blank (1 well, for calibrating the plate reader).
(§4) Anticellular effects of the compounds for the adherent cell lines were assessed with neutral red dye. On the day of analysis, the media was removed from sample cell monolayers and replaced with 0.1 mL of neutral red solution (0.5% neutral red, HBSS:RPMI 1640 (1:1), 0.05 M HEPES, pH 7.2). After incubation of the samples at 37° C. for 1 hour the excess dye was removed with blotting and the monolayers were washed twice with 0.85% NaCl solution (0.1 mL per wash). The cell associated dye was extracted by adding 0.2 mL of a 0.1 M NaH2PO4:ethanol (1:1) solution/well followed by incubation for 1 hour at 35° C. The absorbency of neutral red in each monolayer was measured at 550 nm (620 nm reference beam) on a Denley Anthos 2001 microplate reader. The data were transferred via the ARCOM software capture program in Lotus 1-2-3 for processing.
(§5) In assays where technical difficulties due to crystalization of the neutral red occurred the crystal violet staining procedure was employed to measure the amount of cells were left on the plate. Crystal violet staining solution [0.5% crystal violet (w/v), 50% methanol (v/v), 45% saline (v/v), and 5% formalin (v/v)] were prepared on the day of staining. After the media was removed from the sample wells, two drops of crystal violet stain were added to each well and the samples were incubated at ambient temperature for 10 minutes. […]

[2] = system: COLO 205 cells; test: IC50 assay, inhibition of cell proliferation and growth, COLO 205; assay type: cell-based, human; conditions: Homo sapiens
Description: as §1, §2, §3, §4, §5

[3] = system: MCF7 cells; test: IC50 assay, inhibition of cell proliferation and growth, MCF7; assay type: cell-based, human; conditions: Homo sapiens
Description: as §1, §2, §3, §4, §5

[4] = system: RPMI 8226 cells; test: IC50 assay, inhibition of cell proliferation and growth, RPMI 8226; assay type: cell-based; conditions: Homo sapiens, RPMI-8226, read-out: IC50 Concentrations, RPM 18226
Description: as §1, §2, §3
(§6) Using the procedures described above, concentrations of the Example compounds necessary to inhibit cell proliferation and growth by 50% (1C50 values) were determined in the test cell lines.

[5] = system: A549 cells; test: IC50 assay, inhibition of cell proliferation and growth, A549; assay type: cell-based, human; conditions: Homo sapiens
Description: as §1, §2, §3, §4, §5

[6] = system: M14 cells; test: IC50 assay, inhibition of cell proliferation and growth, M14; assay type: cell-based, human; conditions: Homo sapiens
Description: as §1, §2, §3, §4, §5

[7] = system: SK-OV-3 cells; test: IC50 assay, inhibition of cell proliferation and growth, SK-OV-3; assay type: cell-based, human; conditions: Homo sapiens
Description: as §1, §2, §3, §4, §5

[8] = system: B16 cells; test: IC50 assay, inhibition of cell proliferation and growth, B16; assay type: cell-based; conditions: Mus musculus; B16 murine melanoma cell line; neutral red or crystal violet; read-out: IC50 Concentrations, B16
Description: as §1, §2, §3, §4, §5

[9] = system: P388 cells; test: IC50 assay (XTT), inhibition of cell proliferation and growth, P388; assay type: cell-based; conditions: Mus musculus; P388 murine leukemia cell line; XTT dye conversion; read-out: IC50 Concentrations, P388
Description: as §1, §2, §3
Anticellular effects of the murine leukemia cell lines were assessed with the XTT dye conversion assay which is more suited to suspension cultures. On the day of analysis XTT[2,3-bis(2-methoxy-4-nitro-5-sulfophenyl)-5-[(phenylamino)carbenyl]-2H-tetrazolium hydroxide, inner salt, sodium salt (Sigma)] was weighed out and dissolved at 1 mg/mL in media. PMS (phenazine methosulfate) was prepared at 5 mM in PBS (phosphate buffered saline) and stored as a stock solution 4° C. The PMS was mixed with dissolved XTT to a final concentration of 0.025 mM. Sample wells were treated with 50 μL of the XTT solution and the plates were incubated for four hours at 37° C. to allow for conversion into the liquid soluble formazan product. After the incubation period the reaction was stopped by adding 10 μL of 10% SDS solution per well and the wells contents of each plate were mixed by agitation. The absorbancy of formazan in each monolayer was measured at 450 nm (620 nm reference beam) on a Denley Anthos 2001 microplate reader. The data were transferred via the ARCOM software capture program into Lotus 1-2-3 for processing.
as §6

[10] = SK-MEL-5, read-out: IC50 Concentrations, SK MEL-5
[11] = COLO 205, read-out: IC50 Concentrations, COLO 205
[12] = MCF7, read-out: IC50 Concentrations, MCF 7
[13] = A549, read-out: IC50 Concentrations, A 549
[14] = M14, read-out: IC50 Concentrations, M14
[15] = SK-OV-3, read-out: IC50 Concentrations, SK-OV-3
[16] = SK-MEL-5 melanoma cell line, neutral red or crystal violet, read-out: IC50 Concentrations, SK MEL-5
[17] = COLO 205 colon adenocarcinoma cell line, neutral red or crystal violet, read-out: IC50 Concentrations, COLO 205
[18] = A549 bronchogenic cell line, neutral red or crystal violet, read-out: IC50 Concentrations, A 549
[19] = M14 melanoma cell line, neutral red or crystal violet, read-out: IC50 Concentrations, M14
[20] = SK-OV-3 ovarian adenocarcinoma cell line, neutral red or crystal violet, read-out: IC50 Concentrations, SK-OV-3
[21] = MCF7 breast adenocarcinoma cell line, neutral red or crystal violet, read-out: IC50 Concentrations, MCF 7

Row | Structure (SMILES) | IC50 [1, 10] | IC50 [2, 11] | IC50 [3, 12] | IC50 [4] | IC50 [5, 13] | IC50 [6, 14] | IC50 [7, 15] | melting point | IC50 [1, 16] | IC50 [2, 17] | IC50 [5, 18] | IC50 [8] | IC50 [9] | IC50 [6, 19] | IC50 [7, 20] | IC50 [3, 21]
1 | O=C(c1cc([N+](=O)[O-])ccc1I)N(C(=O)c1cc([N+](=O)[O-])ccc1I)C1=NCCS1 [Ref. No. 17] | 42.8 µM | > 500 µM | 46.9 µM | > 50 µM | 127 µM | 37.9 µM | 32 µM | – | – | – | – | – | – | – | – | –
2 | C=CCNC(=O)c1cc([N+](=O)[O-])ccc1I [Ref. No. 7, N-(Allyl)-2-Iodo-5-Nitro-Benzamide] | – | – | – | – | – | – | – | 155 to 158 °C | 124 µM | 38.5 µM | 134 µM | 45.1 µM | 39.4 µM | 41.8 µM | 46.4 µM | –
3 | O=C(Nc1ccc2ccc(=O)oc2c1)c1cc([N+](=O)[O-])ccc1I [Ref. No. 4, 7-(2′-Iodo-5′-Nitro-Benzamido)-2H-1-Benzopyran-2-one] | – | – | – | – | – | – | – | 273 to 277 °C | > 500 µM | > 500 µM | > 500 µM | 15.9 µM | – | > 500 µM | 395 µM | > 500 µM
4 | O=C(Nc1ncc([N+](=O)[O-])s1)c1cc([N+](=O)[O-])ccc1I [Ref. No. 6, 2-(2′-Iodo-5′-Nitro-Benzamido)-5-Nitro-Thiazole] | 132 µM | 117 µM | 80.9 µM | – | 86.5 µM | 141 µM | 130 µM | 230 to 234 °C | – | – | – | – | – | – | – | –
5 | NC(=O)c1cc([N+](=O)[O-])ccc1I [Ref. No. 15, 2-Iodo-5-Nitro-Benzamide] | – | – | – | – | – | – | – | 260 to 264 °C | 314 µM | 33.2 µM | 37.4 µM | 134 µM | – | 36.1 µM | 141 µM | –
6 | CCN(CC)CCNC(=O)c1cc([N+](=O)[O-])ccc1I [Ref. No. 2, (N,N-Diethylaminoethyl)-2-Iodo-5-Nitro-Benzamide] | – | 343 µM | 128 µM | – | 333 µM | – | – | 124 to 126 °C | – | – | – | – | – | – | – | –
7 | O=C(Nc1nccs1)c1cc([N+](=O)[O-])ccc1I [Ref. No. 5, 2-(2′-Iodo-5′-Nitro-Benzamido)-Thiazole] | – | – | – | – | – | – | – | 210 to 213 °C | 46.2 µM | 13.4 µM | 48.6 µM | 30.8 µM | – | 17.4 µM | 32.8 µM | 27 µM
8 | NC(=O)c1cc(N)ccc1I [Ref. No. 13] | – | – | – | – | – | – | – | – | > 500 µM | > 500 µM | > 500 µM | 500 µM | 439 µM | > 500 µM | > 500 µM | > 500 µM
9 | O=C(Nc1ccc2c(C(F)(F)F)cc(=O)oc2c1)c1cc([N+](=O)[O-])ccc1I [Ref. No. 3, 7-(2′-Iodo-5′-Nitro-Benzamido)-4-Trifluoromethyl-2H-1-Benzopyran-2-one] | 37.7 µM | 39.9 µM | 114 µM | – | 363 µM | 126 µM | 44 µM | 223 to 227 °C | – | – | – | – | – | – | – | –
10 | CN(C)CCNC(=O)c1cc([N+](=O)[O-])ccc1I [Ref. No. 1, (N,N-Dimethylaminoethyl)-2-Iodo-5-Nitro-Benzamide] | 40.1 µM | 267 µM | 133 µM | – | 333 µM | 474 µM | 404 µM | 126 to 128 °C | – | – | – | – | – | – | – | –
11 | C#CCNC(=O)c1cc([N+](=O)[O-])ccc1I [Ref. No. 8, N-(Propargyl) 2-Iodo-5-Nitro-Benzamide] | – | – | – | – | – | – | – | 204 to 206 °C | 90.4 µM | 30.6 µM | 46.6 µM | 50 µM | 25.8 µM | 49 µM | 43.4 µM | 47.7 µM
12 | C=C(C)c1ccccc1NC(=O)c1cc([N+](=O)[O-])ccc1I [Ref. No. 9, N-(2′-Iodo-5′-Nitro-Benzoyl) 2-Isopropenyl Aniline] | – | – | – | – | – | – | – | 155 to 158 °C | > 500 µM | – | > 500 µM | 462 µM | – | > 500 µM | > 500 µM | 100 µM
